Data published in patent US20090253745A1, “MODULATORS OF OCULAR OXIDATIVE STRESS” (SIRION THERAPEUTICS, INC., priority 2007, published 2009).
“Also recorded” adds a separate entry of the source.

Legend:
[1] = system: explants of wild-type mouse retina; assay: In vitro model of light-mediated oxidative stress: isoprostane release from retina explants; format: cell-based; conditions: intense light (~10,000 Lux), 2-day incubation
Text: FIG. 6. Development of an in vitro model of light-mediated oxidative stress. An in vitro model of oxidative stress was developed to determine the therapeutic potency of the TAPP compositions. In this model, explants of wild-type mouse retina are placed into culture media and exposed to intense white light over a 2 day period. Control samples were exposed to subdued lighting (˜100 Lux). The formation of oxidized arachadonic acid (isoprostanes), which is a direct measure of oxidative stress in biological samples, was monitored with a commercially available assay kit (Cayman Chemical Company, Ann Arbor, Mich.).
FIG. 7. TAPP1 reduces light-mediated oxidative stress. The aforementioned in vitro assay of light-mediated oxidative stress was employed to determine the therapeutic potency of TAPP1. In this experiment, isoprostane released from retina explants was measured in the absence and presence of TAPP1 in subdued lighting (˜100 Lux) and during intense light exposure (˜10,000 Lux). […]
The compound TAPP1 (C18H24N4O3), MW 344.18, is formulated as described above. […] TAPP content of the supernatant is analyzed by a capillary reverse phase C18 column. […] The relative quantity of the TAPP is determined by area integration of the TAPP elution peak. […] Isoprostanes are measured with a commercially available in vitro assay kit.

SOD1 mutant mice [2] = assay: Oxidative stress biomarkers (LH, MDA, NT immunoreactivity) in eye tissue of SOD1 mutant mice after eye drop treatment; format: in vivo, mouse; conditions: eye drops 40 mM TAPP1 in 45% β-cyclodextrin, one drop per day, 30 treatments over 6 weeks, versus vehicle
Text: FIG. 9. TAPP1 reduces oxidative stress in SOD1 mutant mice. The evolution of oxidative stress and retinal pathology in SOD1 mutant mice, is preceded by the formation of lipid hydroperoxides (LH), and conjugates of malondialdehyde (MDA) and nitrotyrosine (NT). These conjugates are detected in situ using appropriate monoclonal antibodies. To determine the therapeutic efficacy of the TAPP compositions in vivo, we probed fixed sections of eye tissues for these biomarkers following treatment with either TAPP1 (eye drop formulation containing 40 mM TAPP1 in 45% β-cyclodextrin) or the TAPP1 vehicle (β-cyclodextrin alone). Mice (aged 3 months) were treated with one drop per day, 5 treatments per week for 6 weeks, for a total of 30 treatments. In these studies, areas of increased light intensity indicate increased amounts of LH, MDA or NT in the tissue sections.
A mouse which lacks, or is deficient in, the superoxide dismutase 1 (SOD1) enzyme, is used as a model of oxidative stress. Previous investigations have shown that the SOD1-deficient mouse manifests a phenotype which is consistent with age-related macular degeneration (i.e., formation of drusen, thickening of Bruch's membrane and choroidal neovascularization; Imamura, et. al, Proc Natl Acad Sci, 103: 11282-11287, 2006). Following examination of appropriate biomarkers of oxidative stress, the SOD mutant mice are treated with an eye drop formulation containing 40 mM TAPP1 in β-cyclodextrin. The treatment protocol is one drop per day, 5 treatments per week for 6 weeks, for a total of 30 treatments. SOD mutant mice in the control group receive only the TAPP1 vehicle. Following the treatment regime, mice are sacrificed and eyeglobes are enucleated, fixed and prepared for histological examination. The presence of oxidative stress biomarkers (lipid hydroperoxides, LH; malondialdehyde, MDA; and nitrotyrosine, NT) in the tissue sections were evaluated by immunohistochemistry (FIG. 9). […]

SOD1 mutant mice [3] = assay: Fluorescein angiography: hypopigmentation and integrity of retinal vessels in SOD1 mutant mice; format: in vivo, mouse
Procedure: FIG. 10. TAPP1 improves integrity of retinal vessels in SOD1 mutant mice. A late stage pathology which has been documented in SOD1 mutant mice is choroidal neovascularization (CNV). This pathology is detected by fluorescein angiography. In this technique, a fluorescent dye (fluorescein) is injected into mice and the flow of this dye through vessels of the retina is monitored using a specialized fundus camera. Leakage of the dye outside the retinal vessels indicates compromised vessel integrity and/or CNV. SOD1 mutant mice (aged 6 months) which have been administered the TAPP1 vehicle (treatment protocol is described above) show a prominent area of dye leakage in the area surrounding the optic disc (indicated by arrow).
A Zeiss FF3 fundus camera with a camera back containing a barrier filter for fluorescein angiography (FA) is used. Animals are placed in a restraint built onto the fundus camera and injected with 25% sodium fluorescein (0.01 ml in sterile saline per 5-6 gm of body weight, i.p.). Immediately following the injection, a timer on the camera back is engaged so that elapsed time in seconds is recorded for each picture. The fluorescein images are recorded on Fujichrome Velvia RVP 100 color slide film.

CC1(C)CC(OC(=O)c2cc(-c3ccncc3)n[nH]2)CC(C)(C)N1[O] [TAPP1, 1-oxyl-2,2,6,6-tetramethylpiperidin-4-yl 3-(pyridin-4-yl)-1H-pyrazole-5-carboxylate]
isoprostane release from retina explants [1]: significantly reduced
lipid hydroperoxide (LH) immunoreactivity in ocular tissue (SOD1 mutant mice [2]): significantly reduced
malondialdehyde (MDA) immunoreactivity in ocular tissue (SOD1 mutant mice [2]): significantly reduced
nitrotyrosine (NT) immunoreactivity in ocular tissue (SOD1 mutant mice [2]): significantly reduced
fluorescein dye leakage around the optic disc (integrity of retinal vessels) (SOD1 mutant mice [3]; SOD1 mutant mice aged 6 months, TAPP1 eye drops versus vehicle): no dye leakage; also recorded: reduced dye leakage
severity of hypopigmentation (SOD1 mutant mice [3]; SOD mutant mice aged 186 days, TAPP1 eye drops): reduces the severity of hypopigmentation
